Test results reported in PubChem BioAssay (NCI).
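Protocol summary: plate cells (96-well), add compound at 5 concentrations, incubate 48 h, interpolate endpoints linearly. TGI: total growth inhibition.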

Assays:
Test in all cases: growth of human tumour cells (NCI), 48 h
SR leukemia = system: SR leukemia
UACC-257 melanoma = system: UACC-257 melanoma
MALME-3M melanoma = system: MALME-3M melanoma
SF-539 CNS = system: SF-539 CNS
786-0 renal = system: 786-0 renal
SF-295 CNS = system: SF-295 CNS
PC-3 prostate = system: PC-3 prostate
SK-MEL-2 melanoma = system: SK-MEL-2 melanoma
LOX IMVI melanoma = system: LOX IMVI melanoma
A549 NSCLC = system: A549 NSCLC
SK-MEL-28 melanoma = system: SK-MEL-28 melanoma
U251 CNS = system: U251 CNS
SN12C renal = system: SN12C renal
OVCAR-5 ovarian = system: OVCAR-5 ovarian
COLO 205 colon = system: COLO 205 colon
OVCAR-8 ovarian = system: OVCAR-8 ovarian
CCRF-CEM leukemia = system: CCRF-CEM leukemia
SF-268 CNS = system: SF-268 CNS
MOLT-4 leukemia = system: MOLT-4 leukemia
DU-145 prostate = system: DU-145 prostate
HCT-116 colon = system: HCT-116 colon
OVCAR-4 ovarian = system: OVCAR-4 ovarian
HCC-2998 colon = system: HCC-2998 colon
T-47D breast = system: T-47D breast
TK-10 renal = system: TK-10 renal
OVCAR-3 ovarian = system: OVCAR-3 ovarian
HL-60(TB) leukemia = system: HL-60(TB) leukemia
UACC-62 melanoma = system: UACC-62 melanoma
SK-MEL-5 melanoma = system: SK-MEL-5 melanoma
SK-OV-3 ovarian = system: SK-OV-3 ovarian
RXF 393 renal = system: RXF 393 renal
HOP-62 NSCLC = system: HOP-62 NSCLC
MDA-N = system: MDA-N
NCI-H226 lung = system: NCI-H226 lung
MCF7 breast = system: MCF7 breast
MDA-MB-231 breast = system: MDA-MB-231 breast
HT29 colon = system: HT29 colon
RPMI-8226 leukemia = system: RPMI-8226 leukemia
K-562 leukemia = system: K-562 leukemia
NCI-H23 lung = system: NCI-H23 lung
BT-549 breast = system: BT-549 breast
CAKI-1 renal = system: CAKI-1 renal
NCI-H460 lung = system: NCI-H460 lung
IGROV1 ovarian = system: IGROV1 ovarian
SW-620 colon = system: SW-620 colon
EKVX NSCLC = system: EKVX NSCLC
SNB-75 CNS = system: SNB-75 CNS
HCT-15 colon = system: HCT-15 colon
KM12 colon = system: KM12 colon
M14 melanoma = system: M14 melanoma
NCI-H522 lung = system: NCI-H522 lung
NCI/ADR-RES ovarian = system: NCI/ADR-RES ovarian
MDA-MB-435 = system: MDA-MB-435
HS 578T breast = system: HS 578T breast
UO-31 renal = system: UO-31 renal
SNB-19 CNS = system: SNB-19 CNS
ACHN renal = system: ACHN renal
HOP-92 NSCLC = system: HOP-92 NSCLC

N=C1/C(=C/c2ccccc2)C(=O)N=C2SC=NN12
TGI (SR leukemia): > 100 µM | TGI (UACC-257 melanoma): > 100 µM | TGI (MALME-3M melanoma): > 100 µM | TGI (SF-539 CNS): 88.5 µM | TGI (786-0 renal): > 100 µM | TGI (SF-295 CNS): > 100 µM | TGI (PC-3 prostate): > 100 µM | TGI (SK-MEL-2 melanoma): > 100 µM | TGI (LOX IMVI melanoma): > 100 µM | TGI (A549 NSCLC): > 100 µM | TGI (SK-MEL-28 melanoma): > 100 µM | TGI (U251 CNS): > 100 µM | TGI (SN12C renal): > 100 µM | TGI (OVCAR-5 ovarian): > 100 µM | TGI (COLO 205 colon): > 100 µM | TGI (OVCAR-8 ovarian): > 100 µM | TGI (CCRF-CEM leukemia): > 100 µM | TGI (SF-268 CNS): > 100 µM | TGI (MOLT-4 leukemia): > 100 µM | TGI (DU-145 prostate): > 100 µM | TGI (HCT-116 colon): > 100 µM | TGI (OVCAR-4 ovarian): > 100 µM | TGI (HCC-2998 colon): > 100 µM | TGI (T-47D breast): > 100 µM | TGI (TK-10 renal): > 100 µM | TGI (OVCAR-3 ovarian): > 100 µM | TGI (HL-60(TB) leukemia): > 100 µM | TGI (UACC-62 melanoma): > 100 µM | TGI (SK-MEL-5 melanoma): > 100 µM | TGI (SK-OV-3 ovarian): > 100 µM | TGI (RXF 393 renal): > 100 µM | TGI (HOP-62 NSCLC): > 100 µM | TGI (MDA-N): > 100 µM | TGI (NCI-H226 lung): > 100 µM | TGI (MCF7 breast): > 100 µM | TGI (MDA-MB-231 breast): > 100 µM | TGI (HT29 colon): > 100 µM | TGI (RPMI-8226 leukemia): > 100 µM | TGI (K-562 leukemia): > 100 µM | TGI (NCI-H23 lung): > 100 µM | TGI (BT-549 breast): > 100 µM | TGI (CAKI-1 renal): > 100 µM | TGI (NCI-H460 lung): > 100 µM | TGI (IGROV1 ovarian): > 100 µM | TGI (SW-620 colon): > 100 µM | TGI (EKVX NSCLC): > 100 µM | TGI (SNB-75 CNS): > 100 µM | TGI (HCT-15 colon): > 100 µM | TGI (KM12 colon): > 100 µM | TGI (M14 melanoma): > 100 µM | TGI (NCI-H522 lung): > 100 µM | TGI (NCI/ADR-RES ovarian): > 100 µM | TGI (MDA-MB-435): > 100 µM | TGI (HS 578T breast): > 100 µM | TGI (UO-31 renal): > 100 µM | TGI (SNB-19 CNS): > 100 µM | TGI (ACHN renal): > 100 µM | TGI (HOP-92 NSCLC): > 100 µM
